{"source": "patent US8106003B2", "about": "“Peptides and methods for the treatment of inflammatory disease” (Auckland Uniservices Limited, priority 2004, dated 2012)", "test_system": "β2 integrin (αLβ2)-mediated adhesion of H9 cells to ICAM-1", "test": "Cell adhesion assay: H9 cells to ICAM-1-Fc (integrin specificity)", "type": "cell-based, human", "details": "Mn++-activated H9 cells", "protocol": "Cell adhesion assays. Lab-Tek 16-well glass slides (Nunc) or flat-bottomed 96-well maxisorb plates (Nunc) were coated with purified mouse MAdCAM-1-Fc, human VCAM-1-Fc, and human ICAM-1-Fc (70 to 100 μl of 5 to 10 μg/ml), and incubated at 4° C. overnight. Slides were washed once with PBS, and blocked with FCS for 2 h at room temperature. Slides were washed with Hanks balanced salt solution (HBSS) containing 10 mM Hepes. Cells were either left unlabeled or labeled with the fluorescent dye chloromethyl fluorescein diacetate (CMFDA; Molecular Probes, Oregon), and activated by resuspension in HBSS containing 10 mM Hepes supplemented with 2 mM Ca^++ and 2 mM Mn^++. Cells were alternatively activated with 50 ng/ml PMA, or by incubating with AlF4^− (10 mM NaF and 40 µM AlCl3). They were preincubated with peptides at different concentrations for 10 min at room temperature, checked for viability by trypan blue exclusion, and then 10^6 cells added to each coated well and left to adhere for 30 min at room temperature. […] The number of adherent cells was determined by counting the number of adherent cells in four independent fields at 100× magnification under an inverted microscope. […] The fluorescence of CMFDA-labeled adherent cells was measured using a VICTOR 1420 multilabel counter (Wallac). […]"}
{"substance": "YDDREY: cell permeable YDRREY (SEQ ID NO. 1) peptide, carrier not stated at this place", "values": [{"measurement": "inhibition of H9 cell binding to ICAM-1", "result": "neither the cell permeable YDDREY (SEQ ID NO. 1) peptide nor the β3 CARD were able to block"}]}
